Key:
[1] = test system: normal NK cells expanded with K562-aAPC; assay: percent inhibition of viability; higher = more inhibition; conditions: 72 h, IL-2 2.5 ng/mL
Procedure: (§1)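 Drug sensitivity and resistance testing on K562-aAPC-expanded normal NK cells: 5 concentrations (10-fold steps over a 10,000-fold range), 72 h at 37 °C, viability by CellTiter-Glo normalised to DMSO and benzethonium chloride controls; DSS from the fitted curve.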

DERL-7 (IL-2 2.5 ng/mL) [2] = assay: as above; conditions: 72 h
IMC-1 (IL-2 20 ng/mL) [3] = assay: as above; conditions: 72 h
KAI3 (IL-2 2.5 ng/mL) [4] = assay: as above; conditions: 72 h
KHYG-1 (IL-2 2.5 ng/mL) [5] = assay: as above; conditions: 72 h
NK-92 (IL-2 2.5 ng/mL) [6] = assay: as above; conditions: 72 h
NK-YS (IL-2 2.5 ng/mL) [7] = assay: as above; conditions: 72 h
NKL (IL-2 2.5 ng/mL) [8] = assay: as above; conditions: 72 h
SNK-6 (IL-2 2.5 ng/mL) [9] = assay: as above; conditions: 72 h
YT (IL-2 2.5 ng/mL) [10] = assay: as above; conditions: 72 h
[11] = test system: normal primary NK cells, pool 1 (3 donors) (IL-2 2.5 ng/mL); assay: as above; conditions: 72 h
[12] = test system: normal primary NK cells, pool 1 (3 donors), resting (IL-2 0 ng/mL); assay: as above; conditions: 72 h
[13] = test system: normal primary NK cells, pool 2 (3 donors) (IL-2 2.5 ng/mL); assay: as above; conditions: 72 h
[14] = test system: normal primary NK cells, pool 3 (3 donors) (IL-2 2.5 ng/mL); assay: as above; conditions: 72 h
[15] = test system: normal NK cells expanded with K562-aAPC; assay: drug sensitivity score (DSS) (DSS units); higher = more sensitive; extreme values may be limits of the assay; conditions: 72 h; IL-2 2.5 ng/mL
Procedure: as §1

DERL-7 (IL-2 2.5 ng/mL) [16] = assay: as above; conditions: 72 h
IMC-1 (IL-2 20 ng/mL) [17] = assay: as above; conditions: 72 h
KAI3 (IL-2 2.5 ng/mL) [18] = assay: as above; conditions: 72 h
KHYG-1 (IL-2 2.5 ng/mL) [19] = assay: as above; conditions: 72 h
NK-92 (IL-2 2.5 ng/mL) [20] = assay: as above; conditions: 72 h
NK-YS (IL-2 2.5 ng/mL) [21] = assay: as above; conditions: 72 h
NKL (IL-2 2.5 ng/mL) [22] = assay: as above; conditions: 72 h
SNK-6 (IL-2 2.5 ng/mL) [23] = assay: as above; conditions: 72 h
YT (IL-2 2.5 ng/mL) [24] = assay: as above; conditions: 72 h
[25] = test system: normal primary NK cells, pool 1 (3 donors) (IL-2 2.5 ng/mL); assay: as above; conditions: 72 h
[26] = test system: normal primary NK cells, pool 1 (3 donors), resting (IL-2 0 ng/mL); assay: as above; conditions: 72 h
[27] = test system: normal primary NK cells, pool 2 (3 donors) (IL-2 2.5 ng/mL); assay: as above; conditions: 72 h
[28] = test system: normal primary NK cells, pool 3 (3 donors) (IL-2 2.5 ng/mL); assay: as above; conditions: 72 h

CC(=O)O[C@H]1C(=O)[C@@]2(C)[C@H]([C@H](OC(=O)c3ccccc3)[C@]3(O)C[C@H](OC(=O)[C@H](O)[C@@H](NC(=O)c4ccccc4)c4ccccc4)C(C)=C1C3(C)C)[C@]1(OC(C)=O)CO[C@@H]1C[C@@H]2O [Paclitaxel] (max concentration tested 1000 nM)
percent inhibition of viability [%]
Conditions | 0.1 nM | 1 nM | 10 nM | 100 nM | 1000 nM
DERL-7 (IL-2 2.5 ng/mL) [2] | 2.23 | -0.79 | 99.4 | 100 | 99.4
IMC-1 (IL-2 20 ng/mL) [3] | -7.88 | -0.55 | 98.5 | 100 | 99.5
KAI3 (IL-2 2.5 ng/mL) [4] | -12.1 | 9.77 | 53 | 60.6 | 46.1
KHYG-1 (IL-2 2.5 ng/mL) [5] | -5.68 | -0.23 | 77.2 | 106 | 99.2
NK-92 (IL-2 2.5 ng/mL) [6] | -18.6 | -5.15 | 11.3 | 92.6 | 94
NK-YS (IL-2 2.5 ng/mL) [7] | -2.51 | -5.4 | 71.3 | 77.6 | 64.6
NKL (IL-2 2.5 ng/mL) [8] | -17.5 | -11.8 | 84.1 | 93.2 | 87.1
SNK-6 (IL-2 2.5 ng/mL) [9] | 6.76 | -3.54 | 75.5 | 79 | 72.6
YT (IL-2 2.5 ng/mL) [10] | -2.12 | -2.24 | 82.5 | 102 | 93.8
[1] | 0.76 | -4.63 | 3.65 | 56.1 | 55.1
[11] | -14.5 | -13.4 | -1.12 | -4.6 | 3.64
[12] | -38.3 | -37.4 | -2.05 | -14 | 0.96
[13] | -2.11 | -0.3 | -9.26 | 1.41 | 14
[14] | -12.4 | -15.8 | -13.3 | -0.71 | 10.2

Conditions | drug sensitivity score
DERL-7 (IL-2 2.5 ng/mL) [16] | 30.3
IMC-1 (IL-2 20 ng/mL) [17] | 30.2
KAI3 (IL-2 2.5 ng/mL) [18] | 18.9
KHYG-1 (IL-2 2.5 ng/mL) [19] | 26.9
NK-92 (IL-2 2.5 ng/mL) [20] | 18.8
NK-YS (IL-2 2.5 ng/mL) [21] | 22.8
NKL (IL-2 2.5 ng/mL) [22] | 26.6
SNK-6 (IL-2 2.5 ng/mL) [23] | 23.7
YT (IL-2 2.5 ng/mL) [24] | 27.5
[15] | 10.8
[25] | 0
[26] | 0
[27] | 0.27
[28] | 0

CCCCc1nc2cc(/C=C/C(=O)NO)ccc2n1CCN(CC)CC [Pracinostat] (max concentration tested 10000 nM)
percent inhibition of viability [%]
Conditions | 1 nM | 10 nM | 100 nM | 1000 nM | 10000 nM
DERL-7 (IL-2 2.5 ng/mL) [2] | 1.33 | -8.53 | 21.4 | 100 | 100
IMC-1 (IL-2 20 ng/mL) [3] | -2.79 | 2.79 | 10 | 100 | 101
KAI3 (IL-2 2.5 ng/mL) [4] | -0.25 | 10.9 | 59.8 | 100 | 106
KHYG-1 (IL-2 2.5 ng/mL) [5] | 0.14 | -0.26 | 26.9 | 103 | 107
NK-92 (IL-2 2.5 ng/mL) [6] | 0.01 | -2.17 | 42.9 | 103 | 107
NK-YS (IL-2 2.5 ng/mL) [7] | -2.5 | 3.97 | 26.5 | 93.4 | 106
NKL (IL-2 2.5 ng/mL) [8] | -9.49 | 12.2 | 57 | 92.3 | 105
SNK-6 (IL-2 2.5 ng/mL) [9] | -6.98 | 1.26 | 17.8 | 96.5 | 100
YT (IL-2 2.5 ng/mL) [10] | 2.35 | -0.3 | 12.7 | 100 | 105
[1] | 1.37 | 8.83 | 23.6 | 100 | 101
[11] | -0.69 | -4.78 | 22.1 | 96.7 | 97.5
[12] | 0.06 | -6.1 | 49.2 | 86.2 | 90.8
[13] | -8.41 | -3.58 | 22.6 | 94.5 | 94.8
[14] | -9.56 | -4.29 | 13.1 | 97.8 | 98.9

Conditions | drug sensitivity score
DERL-7 (IL-2 2.5 ng/mL) [16] | 21.4
IMC-1 (IL-2 20 ng/mL) [17] | 19.6
KAI3 (IL-2 2.5 ng/mL) [18] | 25.4
KHYG-1 (IL-2 2.5 ng/mL) [19] | 22.1
NK-92 (IL-2 2.5 ng/mL) [20] | 23.6
NK-YS (IL-2 2.5 ng/mL) [21] | 20.3
NKL (IL-2 2.5 ng/mL) [22] | 24.6
SNK-6 (IL-2 2.5 ng/mL) [23] | 20.1
YT (IL-2 2.5 ng/mL) [24] | 20.1
[15] | 21.7
[25] | 21.1
[26] | 22.5
[27] | 20.6
[28] | 19.9

CC(C)(C)c1cc(NC(=O)Nc2ccc(-c3cn4c(n3)sc3cc(OCCN5CCOCC5)ccc34)cc2)no1 [Quizartinib] (max concentration tested 1000 nM)
percent inhibition of viability [%]
Conditions | 0.1 nM | 1 nM | 10 nM | 100 nM | 1000 nM
DERL-7 (IL-2 2.5 ng/mL) [2] | 4.27 | 4.47 | 0.07 | 4.17 | 33.4
IMC-1 (IL-2 20 ng/mL) [3] | -3.97 | -4.91 | -0.67 | -2.42 | -27
KAI3 (IL-2 2.5 ng/mL) [4] | 0.8 | -2.84 | 2.67 | 15.2 | 68.6
KHYG-1 (IL-2 2.5 ng/mL) [5] | -4.77 | -6.69 | -1.59 | 7.07 | 69.5
NK-92 (IL-2 2.5 ng/mL) [6] | 4.94 | 6.77 | 3.37 | 9.08 | 32.8
NK-YS (IL-2 2.5 ng/mL) [7] | -4.56 | -6.94 | -2.6 | 3.09 | 45.4
NKL (IL-2 2.5 ng/mL) [8] | -4.32 | -4.59 | -3.22 | 6.3 | 40.2
SNK-6 (IL-2 2.5 ng/mL) [9] | 19.5 | -15.2 | -9.07 | -27.8 | 31.3
YT (IL-2 2.5 ng/mL) [10] | -3.18 | -4.77 | -2.32 | 8.06 | 28.5
[1] | -5.93 | -6.07 | -5.11 | 1.78 | 12
[11] | -1.34 | 14.2 | 4.45 | 6.54 | 7.43
[12] | 6.94 | 18.5 | 11.5 | 15.2 | 11.1
[13] | -4.07 | 3.45 | 0.79 | 8.48 | 5.08
[14] | -1.63 | 14.8 | 1.27 | -1.92 | 11.7

Conditions | drug sensitivity score
DERL-7 (IL-2 2.5 ng/mL) [16] | 2.22
IMC-1 (IL-2 20 ng/mL) [17] | 0
KAI3 (IL-2 2.5 ng/mL) [18] | 6.21
KHYG-1 (IL-2 2.5 ng/mL) [19] | 4.98
NK-92 (IL-2 2.5 ng/mL) [20] | 2.69
NK-YS (IL-2 2.5 ng/mL) [21] | 2.8
NKL (IL-2 2.5 ng/mL) [22] | 3.06
SNK-6 (IL-2 2.5 ng/mL) [23] | 0.72
YT (IL-2 2.5 ng/mL) [24] | 2.36
[15] | 0.13
[25] | 0
[26] | 0
[27] | 0
[28] | 0.01
